ChEMBL document CHEMBL4706475, “Multiparameter Lead Optimization to Give an Oral Checkpoint Kinase 1 (CHK1) Inhibitor Clinical Candidate: (R)-5-((4-((Morpholin-2-ylmethyl)amino)-5-(trifluoromethyl)pyridin-2-yl)amino)pyrazine-2-carbonitrile (CCT245737)” (J Med Chem, 2016)
Converted amounts (≈) assume the structure as drawn. Values belong to the compound of their own block, whether it stands above or below them.

Legend:
in vivo [1] = conditions: mouse, iv, 10 mg/kg
in vivo [2] = conditions: mouse, iv, 10 mg/kg; remark: listed apart in the source
in vivo [3] = conditions: mouse, po, 10 mg/kg
in vivo [4] = conditions: mouse, iv, 10 mg/kg; remark: listed apart in the source
in vivo [5] = conditions: mouse, po, 5 mg/kg
in vivo [6] = conditions: mouse, iv, 5 mg/kg
in vivo [7] = conditions: mouse, iv, 5 mg/kg; remark: listed apart in the source
in vivo [8] = conditions: mouse, iv, 5 mg/kg; remark: listed apart in the source
in vitro [9] = conditions: mouse, liver microsomes
[10] = Intrinsic clearance in rat hepatocytes at 3 uM assessed per million cells; format: ADME, cell-based, Hepatocyte; conditions: read-out: CLH
[11] = mouse, in vivo, po, 10 mg/kg
in vitro [12] = conditions: human, hepatocytes
in vivo [13] = conditions: rat, po
in vivo [14] = conditions: NCr athymic, mouse, plasma, po, 300 mg/kg
[15] = Metabolic stability in human liver microsomes in presence of glutathione; format: ADME, Microsome
[16] = Intrinsic clearance in dog hepatocytes at 3 uM assessed per million cells; format: ADME, cell-based, Canis lupus familiaris, Hepatocyte; conditions: read-out: CLH
[17] = Lipophilicity, logD of the compound at pH 7.4 by LC-MS/MS analysis; format: physicochemical; conditions: buffer
[18] = Basicity constant, pKa of the compound by UV metric assay; format: physicochemical
[19] = Solubility of compound in phosphate buffer at pH 6.5; format: physicochemical
[20] = Free drug level in NCr athymic mouse plasma xenografted with human HT-29 cells at 12.5 to 100 mg/kg, po administered as single dose measured at 24 hrs; format: ADME, organism-based; conditions: in vivo, dose 12.5-100 mg/kg
in vitro [21] = conditions: CD-1, mouse, hepatocytes
[22] = Passive permeability in human Caco2 cells; format: ADME, cell-based; conditions: caco-2
in vivo [23] = conditions: rat
[24] = Solubility of compound in pure water; format: physicochemical
[25] = Metabolic stability in human liver microsomes in absence of glutathione; format: ADME, Microsome
in vivo [26] = conditions: rat; remark: listed apart in the source

SMILES: N#Cc1cnc(Nc2cc(NC[C@@H]3CNCCO3)c(C3CC3)cn2)cn1
Vd (in vivo [1]): 43.9 L/kg | half-life (in vivo [2]): 8.1 h | bioavailability (in vivo [3]): 68% | clearance (in vivo [4]): 112 mL/min/kg

SMILES: COC(=O)c1cnc(Nc2cnc(C#N)cn2)cc1NCCC1CCNCC1
bioavailability (in vivo [5]): 44% | clearance (in vivo [6]): 141 mL/min/kg | half-life (in vivo [7]): 11 h | Vd (in vivo [8]): 60.5 L/kg | metabolised at 0.5 h (in vitro [9]): 26%

Next, values leading:

Vd (in vivo [1]): 26.8 L/kg | half-life (in vivo [2]): 4.3 h | bioavailability (in vivo [3]): 53% | clearance (in vivo [4]): 113 mL/min/kg
SMILES: N#Cc1cnc(Nc2cc(NC[C@H]3CNCCO3)c(-c3cccc(F)c3)cn2)cn1

Vd (in vivo [1]): 10.4 L/kg | half-life (in vivo [2]): 3.8 h | bioavailability (in vivo [3]): 10% | clearance (in vivo [4]): 138 mL/min/kg
SMILES: CC(C)(O)C#Cc1cnc(Nc2cnc(C#N)cn2)cc1NC[C@@H]1CNCCO1

hepatocyte CLint at 3 µM [10]: 43.4 µL/min/1e6 cells | F [11]: 105% | hepatocyte CLint at 3 µM (in vitro [12]): 2.72 µL/min/1e6 cells | bioavailability (in vivo [13]): 38% | concentration at 24 h (in vivo [14]): 4 µM | Stabilty [15]: Stable | hepatocyte CLint at 3 µM [16]: 55 µL/min/1e6 cells | Vd (in vivo [1]): 9.25 L/kg | logD [17]: 1.47 | pKa [18]: 7.87 | solubility [19]: 1500 µg/mL (≈ 3950 µM) | half-life (in vivo [2]): 2.9 h | Cp(f) [20]: 0.015 µM | hepatocyte CLint at 3 µM (in vitro [21]): 25.7 µL/min/1e6 cells | permeability [22]: 25 10^-6 cm/s | clearance (in vivo [23]): 58.3 mL/min/kg | solubility [24]: 90 µg/mL (≈ 237 µM) | clearance (in vivo [4]): 44.2 mL/min/kg | Stabilty [25]: Stable | Vd (in vivo [26]): 4.6 L/kg
SMILES: N#Cc1cnc(Nc2cc(NC[C@H]3CNCCO3)c(C(F)(F)F)cn2)cn1 [SRA-737]
